We go through 30 compounds from paper PMC9573387, “The First 5′-Phosphorylated 1,2,3-Triazolyl Nucleoside Analogues with Uracil and Quinazoline-2,4-Dione Moieties: A Synthesis and Antiviral Evaluation” (Molecules, 2022).

The test system of one data set is HIV. As to conditions: cited from earlier work.
For data set [1], the system named is recombinant HIV reverse transcriptases (RT). Set-up: method as in PMID 17434736. The note with it: cited from earlier work.
A further data set relates to wild-type HIV RT. The arrangement: method as in PMID 17434736. The note with it: cited from earlier work.
Data set [2] has as its system A/Puerto Rico/8/34 (H1N1) influenza virus. The data set is described as follows: microbe, parasite or virus in culture. It is filed as cell-based. The note with it: for IC50: 48 h, A/Puerto Rico/8/34 (H1N1), MDCK cells, read-out: IC50 (50% inhibition of virus replication).
The next data set in a line: in vitro. As to conditions: dog.
Data set [3] relates to MDCK (ATCC CCL-34) cells.
For data set [4], the system named is A/Puerto Rico/8/34 (H1N1) influenza virus. Set-up: method as in PMID 32930935. The note with it: parent nucleoside analogues, cited from earlier work; for IC50: A/Puerto Rico/8/34 (H1N1), read-out: IC50 (50% inhibition of virus replication).
Data set [5] deals with MDCK (ATCC CCL-34) cells. The note with it: read-out: CC50 (median cytotoxic concentration); parent nucleoside analogues; cited from earlier work.

Counter-ions that a name gives are not always drawn. Like-named read-outs stand apart in the source and are kept apart here.

For the compound `Nc1nc(=O)n([C@H]2C[C@@H](CO)C2)cc1F` [5-fluoro-1-[cis-3-(hydroxymethyl)-cyclobutyl]-cytosine], the “Anti-HIV activity, inactive up to” value with HIV (in vitro) is above 100 µM.

Regarding `Nc1nc(=O)n([C@H]2C[C@@H](COP(=O)(O)OP(=O)(O)OP(=O)(O)O)C2)cc1F` [5′-triphosphate of 5-fluoro-1-[cis-3-(hydroxymethyl)-cyclobutyl]-cytosine], the values for the 50% inhibitory concentration (IC50) (in data set [1]; in the data set on wild-type HIV RT) were 4.7 µM and 6.9 µM, respectively.

Regarding `CCOP(=O)(OCC)OC[C@H]1O[C@@H](n2cc(Cn3ccc(=O)[nH]c3=O)nn2)[C@H](O)[C@@H]1O` [Compound 11a], the half-inhibitory concentration (IC50) in data set [2] (Influenza A virus, H1N1, MDCK) amounted to 434 ± 39 µM. Also, in “in vitro”, the CC50 was above 650 µM.

In the case of `CCOP(=O)(OCC)OC[C@H]1O[C@@H](n2cc(Cn3c(=O)[nH]c(=O)c4ccccc43)nn2)[C@H](O)[C@@H]1O` [Compound 11b], the 50% inhibitory concentration (IC50) in data set [2] (Influenza A virus, H1N1, MDCK) is 411 ± 51 µM. Moreover, in the data set “in vitro”, the CC50 was above 587 µM.

Consider `CCOP(=O)(OCC)OC[C@H]1O[C@@H](n2cc(CCCCn3ccc(=O)[nH]c3=O)nn2)[C@H](O)[C@@H]1O` [Compound 12a, 1-[4-(2,4-dioxo-pyrimidine-1-yl-butyl)-1,2,3-triazol-1-yl]--D-ribofuranose-5-yl diethyl phosphate], for which, in data set [2], the “Antiviral activity against H1N1 (A/PR/8/34) influenza virus, in words” value (“Antiviral activity against H1N1” below) was “inactive”. The half-inhibitory concentration (IC50) in data set [2] is 250 ± 22 µM; in data set [2] (Influenza A virus, H1N1, MDCK), above 180 µM. The CC50 in the data set “in vitro” was above 596 µM.

As to `CCOP(=O)(OCC)OC[C@H]1O[C@@H](n2cc(CCCCn3c(=O)[nH]c(=O)c4ccccc43)nn2)[C@H](O)[C@@H]1O` [Compound 12b], the IC50 in data set [2] (Influenza A virus, H1N1, MDCK) was above 542 µM. Besides, the CC50 in the data set “in vitro” is above 542 µM.

Take `O=c1ccn(Cc2cn([C@@H]3O[C@H](COP(=O)(Oc4ccccc4)Oc4ccccc4)[C@@H](O)[C@H]3O)nn2)c(=O)[nH]1` [Compound 13a]: in data set [2] (Influenza A virus, H1N1, MDCK), the half-inhibitory concentration (IC50) was determined as 121 ± 7 µM. This compound also had a CC50 in “in vitro” above 538 µM.

As for `O=c1[nH]c(=O)n(Cc2cn([C@@H]3O[C@H](COP(=O)(Oc4ccccc4)Oc4ccccc4)[C@@H](O)[C@H]3O)nn2)c2ccccc12` [Compound 13b], in data set [2] (IC50 versus parent compound 33b), the “Antiviral activity exceeding that of the parent compound” value stood at 2 times. In addition, the 50% inhibitory concentration (IC50) in data set [2] (Influenza A virus, H1N1, MDCK) came out at 17.9 ± 3 µM. Also, the “Increase of selectivity index over the parent compound” value in data set [2] (SI versus parent compound 33b) was determined as 7 times. Moreover, the CC50 in the data set “in vitro” is above 494 µM.

Consider `O=c1ccn(CCCCc2cn([C@@H]3O[C@H](COP(=O)(Oc4ccccc4)Oc4ccccc4)[C@@H](O)[C@H]3O)nn2)c(=O)[nH]1` [Compound 14a], for which, in data set [2], the “Antiviral activity against H1N1” value is “inactive” and the 50% inhibitory concentration (IC50) was found to be 183 ± 15 µM. Moreover, the half-inhibitory concentration (IC50) in data set [2] (Influenza A virus, H1N1, MDCK) was above 180 µM. The CC50 in the data set “in vitro” was above 500 µM.

With `O=c1[nH]c(=O)n(CCCCc2cn([C@@H]3O[C@H](COP(=O)(Oc4ccccc4)Oc4ccccc4)[C@@H](O)[C@H]3O)nn2)c2ccccc12` [Compound 14b], the “SI (selectivity index, CC50/IC50 ratio)” value in data set [2] is 2. The IC50 in data set [2] (Influenza A virus, H1N1, MDCK) came to 51 ± 4 µM. Also, the “Increase of cytotoxicity over the parent compound” value with MDCK (ATCC CCL-34) cells [3] (CC50 versus parent compound 34b) is given as 7 fold. In addition, the CC50 in the data set “in vitro” was 98 ± 6 µM.

`COC(=O)[C@H](C)NP(=O)(OC[C@H]1O[C@@H](n2cc(Cn3ccc(=O)[nH]c3=O)nn2)[C@H](O)[C@@H]1O)Oc1ccccc1` (stereo partly shown) [Compound 17a]: the IC50 in data set [2] (Influenza A virus, H1N1, MDCK) amounted to 25 ± 4 µM. Also, the CC50 in the data set “in vitro” was above 530 µM.

With `COC(=O)[C@H](C)NP(=O)(OC[C@H]1O[C@@H](n2cc(Cn3c(=O)[nH]c(=O)c4ccccc43)nn2)[C@H](O)[C@@H]1O)Oc1ccccc1` (stereo partly shown) [Compound 17b], in data set [2] (Influenza A virus, H1N1, MDCK), the IC50 is above 487 µM. In “in vitro”, this compound came in with a CC50 above 487 µM.

Take `COC(=O)[C@H](C)NP(=O)(OC[C@H]1O[C@@H](n2cc(CCCCn3ccc(=O)[nH]c3=O)nn2)[C@H](O)[C@@H]1O)Oc1ccccc1` (stereo partly shown) [Compound 18a]: the “Antiviral activity against H1N1” value in data set [2] is “inactive”. Moreover, in the data set “in vitro”, the CC50 was above 463 µM.

Take `COC(=O)[C@H](C)NP(=O)(OC[C@H]1O[C@@H](n2cc(CCCCn3c(=O)[nH]c(=O)c4ccccc43)nn2)[C@H](O)[C@@H]1O)Oc1ccccc1` (stereo partly shown) [Compound 18b]: the IC50 in data set [2] (Influenza A virus, H1N1, MDCK) is above 456 µM. The compound also returned a CC50 in “in vitro” above 456 µM.

As for `O=c1ccn(Cc2cn([C@@H]3O[C@H](CO[PH](=O)O)[C@@H](O)[C@H]3O)nn2)c(=O)[nH]1` [Compound 23a, 1-[4-(2,4-dioxo-pyrimidine-1-yl-methyl)-1,2,3-triazol-1-yl]--D-ribofuranose-5-yl H-phosphonate triethylammonium salt], in data set [2] (Influenza A virus), the IC50 came out at 204 ± 28 µM. Also, the CC50 in “in vitro” is above 612 µM.

In the case of `O=c1[nH]c(=O)n(Cc2cn([C@@H]3O[C@H](CO[PH](=O)O)[C@@H](O)[C@H]3O)nn2)c2ccccc12` [Compound 23b], the 50% inhibitory concentration (IC50) in data set [2] (Influenza A virus) is 176 ± 21 µM. This compound registered a CC50 in the data set “in vitro” above 555 µM.

Regarding `O=c1ccn(CCCCc2cn([C@@H]3O[C@H](CO[PH](=O)O)[C@@H](O)[C@H]3O)nn2)c(=O)[nH]1` [Compound 24a], the “Antiviral activity against H1N1” value in data set [2] was “inactive”. In addition, the 50% inhibitory concentration (IC50) in data set [2] (Influenza A virus) worked out at 218 ± 32 µM. This compound also gave a CC50 in “in vitro” above 564 µM.

On to `O=c1[nH]c(=O)n(CCCCc2cn([C@@H]3O[C@H](CO[PH](=O)O)[C@@H](O)[C@H]3O)nn2)c2ccccc12` [Compound 24b], for which the IC50 in data set [2] (Influenza A virus, H1N1, MDCK) is above 516 µM. In addition, in the data set “in vitro”, the CC50 is above 516 µM.

As to `O=c1ccn(Cc2cn([C@@H]3O[C@H](COP(=O)(O)O)[C@@H](O)[C@H]3O)nn2)c(=O)[nH]1` [Compound 25a], the half-inhibitory concentration (IC50) in data set [2] (Influenza A virus, H1N1, MDCK) was above 494 µM. In addition, the CC50 in “in vitro” is above 494 µM.

With `O=c1[nH]c(=O)n(Cc2cn([C@@H]3O[C@H](COP(=O)(O)O)[C@@H](O)[C@H]3O)nn2)c2ccccc12` [Compound 25b], the IC50 in data set [2] (Influenza A virus) turned out to be 159 ± 19 µM. The same compound had a CC50 in the data set “in vitro” above 458 µM.

Take `O=c1ccn(CCCCc2cn([C@@H]3O[C@H](COP(=O)(O)O)[C@@H](O)[C@H]3O)nn2)c(=O)[nH]1` [Compound 26a]: the “Antiviral activity against H1N1” value in data set [2] was “inactive”. Moreover, the IC50 in data set [2] (Influenza A virus) was found to be 195 ± 26 µM. This compound also came in with a CC50 in the data set “in vitro” above 463 µM.

As for `O=c1[nH]c(=O)n(CCCCc2cn([C@@H]3O[C@H](COP(=O)(O)O)[C@@H](O)[C@H]3O)nn2)c2ccccc12` [Compound 26b], the IC50 in data set [2] (Influenza A virus) was above 430 µM. In addition, the CC50 in “in vitro” is above 430 µM.

For `O=c1ccn(Cc2cn([C@@H]3O[C@H](CO)[C@@H](O)[C@H]3O)nn2)c(=O)[nH]1` [Compound 33a], in data set [4], the IC50 was above 880 µM and the “Antiviral activity against H1N1” value was “completely inactive”. Moreover, in the data set with MDCK (ATCC CCL-34) cells [5], the CC50 is above 880 µM.

`O=c1[nH]c(=O)n(Cc2cn([C@@H]3O[C@H](CO)[C@@H](O)[C@H]3O)nn2)c2ccccc12` [Compound 33b]: the “SI (selectivity index, CC50/IC50 ratio)” value in data set [2] came out at 3. Also, the IC50 in data set [4] is 42 ± 5 µM.

In the case of `O=c1ccn(CCCCc2cn([C@@H]3O[C@H](CO)[C@@H](O)[C@H]3O)nn2)c(=O)[nH]1` [Compound 34a], in data set [4], the IC50 is above 180 µM and the “Antiviral activity against H1N1” value is “inactive”. Further, the CC50 with MDCK (ATCC CCL-34) cells [5] is above 817 µM.

As for `O=c1[nH]c(=O)n(CCCCc2cn([C@@H]3O[C@H](CO)[C@@H](O)[C@H]3O)nn2)c2ccccc12` [Compound 34b], in data set [4], the IC50 was 30 ± 4 µM. Besides, in the data set on MDCK (ATCC CCL-34) cells [5], the CC50 was above 719 µM.

On to `CCC(CC)O[C@@H]1C=C(C(=O)O)C[C@H](N)[C@H]1NC(C)=O` [Oseltamivir carboxylate, reference compound], for which the “SI (selectivity index, CC50/IC50 ratio)” value in data set [2] is above 667. Moreover, the IC50 in data set [2] (Influenza A virus) stood at 0.3 ± 0.06 µM. Further, the CC50 in the data set “in vitro” was above 200 µM.

As to `COC(=O)[C@H](C)NP(=O)(OC[C@H]1O[C@@H](n2cc(C)c(=O)[nH]c2=O)C[C@@H]1N=[N+]=[N-])Oc1ccccc1` (stereo partly drawn) [ProTide-ZDV, 5′-(phenylmethoxy-L-alaninyl)phosphate of Zidovudine], the “Better activity against HIV than the parent nucleoside analogue” value with HIV (ProTide versus parent) is listed as “more than 100 times”.

In the case of `NC(=O)c1ncn([C@@H]2O[C@H](CO)[C@@H](O)[C@H]2O)n1` [Ribavirin, reference compound], in data set [2], the “SI (selectivity index, CC50/IC50 ratio)” value is recorded as 3. In addition, the IC50 in data set [2] (Influenza A virus) amounted to 31 ± 9 µM. The CC50 in the data set with MDCK (ATCC CCL-34) cells [3] (dog) was determined as 94 ± 48 µM.

Take `CC(N)C12CC3CC(CC(C3)C1)C2` (stereo not shown) [Rimantadine, reference compound]: in data set [2], the “SI (selectivity index, CC50/IC50 ratio)” value came to 4. Moreover, the 50% inhibitory concentration (IC50) in data set [2] (Influenza A virus, H1N1, MDCK) is 77 ± 8 µM. Further, the CC50 in the data set with MDCK (ATCC CCL-34) cells [3] (read-out: CC50 (median cytotoxic concentration), MDCK cells, MTT, concentration causing 50% cell death) was 340 ± 16 µM.
